Data taken from patent US6126795A, “Electroenzymatic reactor and method for enzymatic catalysis” (The United States of America as represented by the …, priority 1998, dated 2000).

B1: Pdx: putidaredoxin, a 2Fe-2S protein, redox carrier of the CYP101 system (protein, UniProt P00259 2-107, looked up)
Putidaredoxin: SKVVYVSHDGTRRELDVADGVSLMQAAVSNGIYDIVGDCGGSASCATCHVYVNEAFTDKVPAANEREIGMLECVTAELKPNSRLCCQIIMTPELDGIVVDVPDRQW

How the values were obtained:
CYP101 = CYP101 (Pseudomonas putida, UniProt P00183); assay: Electrode-driven camphor hydroxylation by CYP101/Pdx in electroenzymatic reactor; type: biochemical
From the text: The proteins were then purified using ion-exchange chromatography and size exclusion chromatography. The final protein preparations were at least 95% pure. On the basis of absorbance ratios, the mole fraction purity ×100 of each subunit protein was greater than 90. In addition, several preparations of the proteins were examined by high-resolution two-dimensional gel electrophoresis and by imaging analysis, and the mole fraction purity ×100 was estimated to be greater than 97 for each protein.
The working electrodes used in the following examples were antimony-doped, tin-oxide coated (0.3 μm thickness) glass slides (4×2 cm, Delta Technologies, Stillwater, Min.), with donor concentration as determined from Mott-Schottky plots (Nd =5×10^20 cm^-3). Prior to the biocatalysis experiments, the electrodes were soaked and sonicated in 1 M NaOH for approximately two hours, then rinsed with distilled water. They were activated in 15% HCl solution using a potential sweep between -0.5 and 1.5 V at 10 mV/s, and stored in distilled water. Film electrode resistance, as measured by a four point probe (Cascade Mictrotech, Inc., Model C4A-44 Beaverton, Oreg.), was 40-50 .OMEGA./sq.
The reference electrode was a standard Ag/AgCl (3M KCl) reference micro-electrode (Abtech Inc. RE803). The counter electrode was made as a coil of 0.5 mm thick Pt wire.
The buffer media was prepared using 0.16 M aqueous KCl and 0.01 M aqueous MgCl2, adjusted to about pH 7.4 with Tris-HCl buffer.
The product, 5-exo-hydroxy-camphor, was identified by GC-MS (gas chromatography and mass spectrophotometry) and quantified by GC-FID (gas chromatography and flame ionization detection). GC injection samples of 1-2 μL were prepared from approximately equal volumes of reaction mixture and an extraction cocktail comprising 0.3 g methylene chloride and 0.02 g KCl with 300 μM n-decane as an internal standard. The GC was operated with a DB-5 column (J&W Scientific, Folsom, Calif.) (30 m) with temperature programing (2 minutes at 60° C., ramp at 10° C./min to 120° C., 2 min at 120° C., ramp up at 15° C./min 160° C.). Retention times (He carrier gas at 2.8 bar pressure) were: n-decane 4.7 minutes, camphor 7.0 minutes, 5-exo-hydroxy-camphor 10.9 minutes. […] Identification of 5-exo-hydroxy-camphor as the product was done by comparing the m/e (mass/charge ratio) pattern (VG analytical Mass Spectrometer, 70 eV electron impact energy) with published spectra; see White et al., Arch. Biochem. Biophys.228, 493-502, 1984, the disclosure of which is incorporated herein by reference.
The same cell as described in Example 1 was equipped with two antimony-doped, tin-oxide electrodes and one platinum wire counter electrode. […] Electrolysis was started by applying a potential equal to -0.7 V (vs Ag/AgCl) to the tin oxide electrodes. […] Therefore, the enzyme underwent about 20 turnovers during the four hour period.
The same cell as described in Example 1 was equipped with-one antimony-doped, tin-oxide electrode and a Pt wire counter electrode isolated by a glass frit. A Pt sheet (0.5×10×30 mm) was positioned close to the surface of the working electrode. […] Initial GC analysis indicated no trace of the product. A potential equal to -0.7 V (vs Ag/AgCl) was applied to the tin oxide electrode. The Pt sheet was left at open circuit potential. After 5 hours of electrolysis, during which the solution was stirred by a magnetic stirrer, 442 μM product (5-exo-hydroxy-camphor) was detected by GC analysis. This corresponds to 1922 turnovers of the enzyme at an average rate of 384 turnovers/hour.
An antimony-doped, tin-oxide working electrode was wrapped in a Pt grid, which was electrically isolated from the conductive side of the electrode. A Pt wire, isolated from the working electrode and Pt grid by a glass frit, was utilized as a counter electrode. […]

[1] = Pdx integrity/activity after electrolysis and redox behaviour on antimony-doped tin-oxide electrode; type: physicochemical
Procedure: In a 1 cm path-length spectrophotometer cell, with 30 μM Pdx in the above-specified buffer, a potential of -0.7 V (vs. Ag/AgCl) was applied using a potentiostat, and an absorption spectrum was recorded through the transparent SnO2 electrode and 1 cm of reactor solution. The electrode surface area to solution volume ratio was about 5/m. A characteristic absorption spectrum of the oxidized Pdx was recorded initially. After 30 minutes of electrolytic reduction at -0.7 V, a characteristic spectrum of reduced Pdx was recorded. After an additional 30 minutes of electrolysis, the potential was switched to 0 V and a characteristic spectrum of oxidized Pdx was obtained. After electrolysis was complete, 50% of the initial activity of Pdx was recovered, as determined by the method described in Phillips and Langdon, J. Biol. Chem., 237, 2652 (1962), the disclosure of which is incorporated herein by reference. […] The recorded current-potential dependencies were stable and reproducible throughout the 6 hour period. […] The method described in this Example can be used to determine whether the working electrode has redox activity toward the redox carrier.
An antimony-doped, tin-oxide working electrode was wrapped in a Pt grid, which was electrically isolated from the conductive side of the electrode. A Pt wire, isolated from the working electrode and Pt grid by a glass frit, was utilized as a counter electrode. […] After 15.5 hours or electrolysis at -0.65 V (vs Ag/AgCl) and room temperature with continuous stirring, the solution contained 222 μM of product (5-exo-hydroxy-camphor), which corresponds to 1127 turnovers of the enzyme.

Row | Molecule | Product Turnover Rate (CYP101; 12.8 μM CYP101 (no Pdx), Argon Purge, 800 μM camphor, -0.7 V, 21-22° C.) | Product Turnover Rate (CYP101; 41 μM Pdx (no CYP101), Argon Purge, 800 μM camphor, -0.7 V, 21-22° C.) | Product Turnover Rate (CYP101; 41 μM Pdx + 0.41 μM CYP101, Air Saturated, 800 μM camphor, -0.7 V, 21-22° C.) | Product Turnover Rate (CYP101; 55 μM Pdx + 0.18 μM CYP101, Argon Purge, 800 μM camphor, -0.7 V, 21-22° C.) | Product Turnover Rate (CYP101; 108 μM Pdx + 0.23 μM CYP101, Argon Purge, 800 μM camphor, -0.7 V, 21-22° C.) | Product Turnover Rate (CYP101; 1030 μM Pdx + 0.13 μM CYP101, Argon Purge, initial camphor 2 mM, -0.7 V, 21-22° C.) | Product Turnover Rate (CYP101; 1030 μM Pdx + 0.13 μM CYP101, Argon Purge, initial camphor concentration was mM, 37° C., -0.7 V) | turnovers of the enzyme (CYP101; Example 2: 10 μM CYP101, 118 μM Pdx, 600 μM camphor, -0.7 V, 240 minutes, argon purge) | average rate of enzyme turnover (CYP101; Example 3: 0.23 μM CYP101, 108 μM Pdx, 626 μM camphor, -0.7 V, 5 hours) | turnovers of the enzyme (CYP101; Example 3: 0.23 μM CYP101, 108 μM Pdx, 626 μM camphor, -0.7 V, 5 hours, Pt sheet near working electrode) | turnovers of the enzyme (CYP101; Example 4: 0.2 μM CYP101, 101 μM Pdx, 650 μM camphor, -0.65 V, 15.5 hours, room temperature, Pt grid) | formal potential [1] | initial activity of Pdx recovered after electrolysis ([1]; Example 1: 30 μM Pdx, electrolysis at -0.7 V then 0 V on SnO2 electrode) | Pdx remaining intact after electrolysis (% of the initial concentration) ([1]; Example 4: 101 μM initial Pdx, 15.5 hours at -0.65 V) | Pdx remaining intact after electrolysis (concentration) ([1]; Example 4: 101 μM initial Pdx, 15.5 hours at -0.65 V, spectrophotometric analysis)
1 | CC12CCC(CC1=O)C2(C)C (stereo not drawn) [camphor] | 0 nmol 5exo-hydroxy-camphor/min/ | 0 nmol 5exo-hydroxy-camphor/min/ | 0.9 nmol 5exo-hydroxy-camphor/min/ | 4.2 nmol 5exo-hydroxy-camphor/min/ | 6.4 nmol 5exo-hydroxy-camphor/min/ | 34 nmol 5exo-hydroxy-camphor/min/ | 36 nmol 5exo-hydroxy-camphor/min/ | about 20 turnovers | 384 turnovers/hour | 1922 turnovers | 1127 turnovers |  |  |  | 
2 | B1 |  |  |  |  |  |  |  |  |  |  |  | -0.42 V vs Ag/AgCl | 50% | about 85% | about 85 μM
